Measured values as given in US20230130103A1, “TARGETED PHARMACOLOGICAL THERAPEUTICS IN UVEAL MELANOMA” (Washington University, priority 2017, published 2023).
Starred links: 1 amine or outer side, 2 acyl side, 3 side chain; linkers in the order of their positions; H or OH if unused. Positions of bridges follow the written chain, without caps; N, C: chain ends. Non-standard residues stand in square brackets, D forms with d. Residues, ends and D or L forms follow the SMILES beside them. *: point of attachment. Leu(3R-OH,Nα-propionyl) = CCC(=O)N[C@H](C(=O)*)[C@H](O)C(C)C; X1 = CC(C)[C@@H](O[*:3])[C@H](N[*:1])C(=O)[*:2]; X2 = CC(C)[C@H](O[*:3])[C@@H](N[*:1])C(=O)[*:2]; NMeaThr = CN[C@H](C(=O)O)[C@H](C)O; dPhLac = O=C(O)[C@H](O)Cc1ccccc1; NMeA = CN[C@@H](C)C(=O)O; NMeDha = C=C(NC)C(=O)O

Columns and labels:
92.1 UM cells [1] = test: RNA-Seq global gene expression, FR vs vehicle; type: cell-based, Human; settings: 92.1 cells, 100 nM FR, p<0.001
92.1 cells = test: Flow cytometry of DNA content (proliferation and apoptosis); settings: 3 d, FIG. 4C-D
Method: (§3) Cells were cultured at 37.0 in 5% CO2. […] Cell lines were grown in RPMI 1640 medium (Life Technologies, Carlsbad, Calif.) supplemented with 10% FBS and antibiotics. Cell viability was measured using a water-soluble tetrazolium salt, WTS-8 (Bimake, Houston, Tex.), following the manufacturer's protocol. Flow cytometry for analysis of cell proliferation and apoptosis was performed at the Siteman Cancer Center Flow Cytometry Core on a FACScan analyzer (BD Biosciences, San Diego Calif., USA) using a standard propidium iodide staining protocol as described previously (44).

[2] = Retina structure (preliminary data)
Excerpt: In this example we will determine whether FR has potential to provide vision sparing therapy for primary (ocular) UM tumors. […] Based on our preliminary studies of UM cells in culture, intravitreal injection might be therapeutically beneficial by inhibiting tumor growth, promoting apoptosis, and/or pushing tumor re-differentiation toward melanocytic phenotypes less likely to metastasize. […] Our second priority is to determine whether FR administered systemically could provide therapeutic benefit for metastatic UM tumors.

[3] = tested on: constitutively active Gαq bearing FR binding site mutations; test: SRE(L) promoter-driven transcriptional reporter; type: cell-based; settings: read-out: IC50, inhibition of transcriptional reporter induction
Excerpt: (§1) (FIG. 1A-1C) depicts the effect of FR on the activity state of Gα subunits as determined by interaction with Gβγ or RGS domains in split luciferase complementation assays. FIG. 1A Effect of FR on interaction of Gβγ2 with the indicated wild type (WT) or mutant constitutively active (Q/L) forms of Gα (q) or Gα13 (13). * p<0.01; ** p<0.05. FIG. 1B Potency of FR as a driver of interaction of Gβγ2 with wild type or mutant constitutively active Gαq. FIG. 1C Potency of FR as inhibitor of interaction of RGS2 with mutant constitutively active (Q/L) Gαq, or interaction of the RGS domain of LARG (LARG-RGS) with mutant constitutively active Gα13. FIG. 1D Potency of FR as inhibitor of signal transduction by constitutively active Gαq or Gα13 detected with an SRE(L) promoter-driven transcriptional reporter. Constitutively active Gαq (Q/L), constitutively active Gαq bearing the indicated FR binding site mutations, and constitutively Gα13 (Q/L) were studied.
(§2) Assays of transcriptional reporters driven by YAP or Gα subunits were performed as described (42, 43). YAP- or Ga-driven firefly luciferase activity was normalized to Renilla luciferase expressed from a constitutive promoter.

[4] = tested on: constitutively active Gαq; test: SRE(L) promoter-driven transcriptional reporter; type: cell-based; settings: driven by constitutively active Gαq; FIG. 1D; read-out: IC50, inhibition of transcriptional reporter induction
Excerpt: as §1, §2

[5] = tested on: constitutively active Gα13; test: SRE(L) promoter-driven transcriptional reporter; type: cell-based; settings: driven by constitutively active Gα13
Excerpt: as §1, §2

92.1 UM cells [6] = test: UM cell viability, water-soluble tetrazolium salt assay; settings: Homo sapiens, read-out: EC50, inhibition of proliferation (viability)
Method: as §3

In the case of `C=C1C(=O)N[C@@H](C)C(=O)N(C)[C@@H](C)C(=O)N[C@H]([C@@H](OC(=O)[C@@H](NC(=O)CC)[C@H](O)C(C)C)C(C)C)C(=O)N(C)[C@@H]([C@H](C)OC)C(=O)O[C@H](C(C)C)[C@H](NC(C)=O)C(=O)O[C@H](Cc2ccccc2)C(=O)N1C` [FR, [(1S)-1-[(3S,6R,9S,12S,18R,21S,22R)-21-acetamido-18-benzyl-3-[(1S)-1-methoxyethyl]-4,9,10,12,16-pentamethyl-15-methylidene-2,5,8,11,14,17,20-heptaoxo-22-propan-2-yl-1,19-dioxa-4,7,10,13,16-pentazacyclodocos-6-yl]-2-methylpropyl] (2S,3R)-3-hydroxy-4-methyl-2-(propanoylamino)pentanoate] (Ac-[X1][dPhLac][NMeDha]A[NMeA][X2](Leu(3R-OH,Nα-propionyl))[NMeaThr](Me); ester 1-C), the BBC3/PUMA expression decrease (92.1 UM cells [1]) is reported as 3.5 fold, the PMAIP1/NOXA expression decrease (92.1 UM cells [1]) is reported as 2.5 fold and the “p21CIP1 (CDKN1A) expression, down” value (92.1 UM cells [1]) is reported as 3.0 fold. For the same molecule, the “apoptosis (sub-G1/G0 cells)” value (92.1 cells) was “increased levels of sub-G1/G0 cells”, the “cell cycle inhibition (decreased levels of S- and G2/M-phase cells)” value (92.1 cells) was “induced cell cycle inhibition” and the retina structure [2] was “preserves retina structure”. The IC50 [3] was 30 to 70 nM, the IC50 [4] was 1 nM and the “effect on expression of the transcriptional reporter” value [5] was “no effect”. For the same molecule, the EC50 (92.1 UM cells [6]) was 2 nM.
